According to patent US20190169140A1, “IDO1 INHIBITOR AND PREPARATION METHOD AND APPLICATION THEREOF” (SHANDONG LUYE PHARMACEUTICAL CO., LTD., priority 2016, published 2019):

Columns and labels:
[1] = molecular target: T1, recombinant human IDO1 enzyme (Homo sapiens, UniProt P14902); test: Test of hIDO1 for enzymatic activity in vitro (NFK Green fluorescence); format: biochemical
T1 construct: purchased NTRC (Netherlands Translational Research Center) NTRC-hIDO-10K
Procedure: 1. Test of hIDO1 for Enzymatic Activity In Vitro
1.1 Purpose of Experiment:
Changes in production of NFK, an IDO1 enzymatic metabolite were detected with NFK Green™ fluorescent molecules. With an IC50 value of a compound as an index, an inhibitory effect of the compound on recombinant human IDO1 enzyme was evaluated.
The compound was diluted with dimethyl sulfoxide (DMSO) to 1 mM, with 10 gradients, each 3-fold dilution, in duplicate. 48 μL of 50 mM phosphate buffer, having pH of 6.5, was transferred by the Bravo automatic liquid processing platform to the compound plate. Then 2 μL of an already diluted compound/DMSO solution was added. After even mixing, 10 μL of the resultant mixture was transferred to the enzymatic reaction plate.
IDO1 enzyme was diluted to 20 nM in a reaction buffer (50 mM phosphate buffer with pH of 6.5, 0.1% of Tween-20, 2% of glycerol, 20 mM ascorbic acid, 20 μg/ml catalase, and 20 μM methylene blue), 20 μL of the diluted IDO1 enzyme was transferred to the enzymatic reaction plate, and incubated at 23° C. for 30 minutes. 10 μL of 400 μM L-type tryptophan substrate was added to start reaction. The incubation lasted at 23° C. for 90 minutes. 10 μL of NFK Green™ fluorescent dye was added. The resultant mixture was sealed with the plate sealing film. After incubation at 37° C. for 4 hours, an Envision multi-functional plate reader was used for reading (Ex 400 nm/Em 510 nm).
A reference well to which the IDO1 enzyme was added but no compound was added was set to have an inhibition rate of 0%, and a reference well to which no IDO1 enzyme was added was set to have an inhibition rate of 100%. Data was analyzed with XLFit 5 to calculate an IC50 value of the compound.

[2] = molecular target: T2, IDO1 enzyme in Hela cells (Homo sapiens, UniProt P14902); test: Test of hIDO1 for cytological activity (Hela cell kynurenine by LCMS, interferon-γ induced); format: cell-based; settings: interferon-γ 100 ng/ml, 20 hours
T2 construct: endogenous in cells; host or cells: Hela cells, induced with recombinant human interferon-γ
Procedure: 2. Test of hIDO1 for Cytological Activity
Changes in Hela cell kynurenine were detected by an LCMS method. With an IC50 value of a compound as an index, an inhibitory effect of the compound on IDO1 enzyme was evaluated.
The culture medium, trypsin, and DPBS were preheated in water bath at 37° C. The culture medium was removed by sucking from cell culture, followed by cleaning the cell culture with 10 mL of DPBS; the preheated trypsin was added to the culture flask, which was revolved to make the culture flask covered by trypsin uniformly, and placed into an incubator at 37° C. with 5% CO2 for digestion for 1-2 minutes; 10-15 mL of the culture medium was used to suspend cells each T150, followed by centrifugation at 800 rpm for 5 minutes. 10 mL of the culture medium was used to resuspend the cells. 1 mL of the cell resuspension was pipetted, and counted with Vi-cell; the Hela cells were diluted to 5×10^5/mL with the culture medium, 80 μL of the diluted Hela cells were added to the 96-well cell plate, and incubated in the an incubator at 37° C. with 5% CO2 for 5-6 hours.
The compound was diluted with DMSO to 1 mM, with 9 gradients, each 3-fold dilution, in duplicate. 5 μL of the already diluted compound DMSO solution was added to the compound plate containing 95 μL of the culture medium. After even mixing, 10 μL of the mixture was transferred to the cell plate.
10 μL of recombinant human interferon-γ was added to result in a final concentration of 100 ng/ml, to induce expression of IDO1. Incubation was carried out in the 5% CO2 incubator at 37° C. for 20 hours. 4 μL of 5% (w/v) trichloroacetic acid was added, followed by even mixing and incubation at 50° C. for 30 minutes. After centrifugation at 2400 rpm for 10 minutes, 40 μL of a supernatant was added to a 96-well V-bottom plate, followed by addition of a precipitant. Centrifugation was carried out at 4000 rpm for 10 minutes after even mixing. 100 μL of the supernatant was transferred to a new 96-well V-bottom plate. A content of kynurenine was detected through LCMS.
A reference well to which the interferon-γ was added but no compound was added was set to have an inhibition rate of 0%, and a reference well to which no Hela cell was added was set to have an inhibition rate of 100%. Data was analyzed with XLFit 5 to calculate an IC50 value of the compound.

[3] = Test for permeability across MDR1; format: in vitro ADME; settings: dog, MDCK-MDR1
Procedure: Test for Permeability Across MDR1
A sample for test was dissolved in dimethyl sulfoxide (DMSO) or other suitable solvents, to be prepared into 10 mM stock solution. A suitable internal standard (IS) was dissolved in acetonitrile (ACN) or other organic solvents as a stop solution. Specific information would be described in a research report.
Fenoterol, propranolol, and digoxin acted as low-permeability control, high-permeability control, and P-gp substrate in the present research. The stock solutions of these compounds were prepared with DMSO, stocked at 2-8° C., and valid for use within 3 months.
In the present project, a Hank's balanced salt buffer containing 10 mM HEPES was used as a transport buffer.
MDR1-MDCK II cells were cultivated using α-MEM culture media (α-Minimum Essential Media), with a culture condition of 37±1° C., 5% CO2, and saturated relative humidity. Afterwards, the cells were inoculated into a BD Transwell-96-well plate (BD Gentest), with an inoculation density of 2.3×10^5 cells/cm^2, then the cells were placed in a carbon dioxide incubator to be incubated for 4-7 days, and then used for a transport experiment.
A solution to be used was placed in a 37±1° C. water bath kettle to be pre-incubated for 30 minutes. The donor solution and the receiver solution were respectively added to corresponding sides of wells of cell plate (to an apical side and a basolateral side, 75 μL and 250 μL of samples were added respectively), and experiment of bidirectional transport was started. After the addition of the samples, the cell plate was placed in a 37±1° C., 5% CO2 incubator with saturated relative humidity to be incubated for 150 minutes.
The samples were all centrifuged at 3220 g for 10 minutes after being shaken in a vortex manner. A suitable volume of a supernatant was transferred to a sample analyzing plate. If analysis was not carried out immediately after the plate was sealed, the plate was stored at 2-8° C. The analysis was carried out through a method of LC/MS/MS.
The sample for test, fenoterol control, propranolol control, and digoxin were analyzed in a semiquantitative manner, and specific values of analytes to a peak area of the internal standard were taken as concentration of the controls.

T2 sequence (P14902 whole entry): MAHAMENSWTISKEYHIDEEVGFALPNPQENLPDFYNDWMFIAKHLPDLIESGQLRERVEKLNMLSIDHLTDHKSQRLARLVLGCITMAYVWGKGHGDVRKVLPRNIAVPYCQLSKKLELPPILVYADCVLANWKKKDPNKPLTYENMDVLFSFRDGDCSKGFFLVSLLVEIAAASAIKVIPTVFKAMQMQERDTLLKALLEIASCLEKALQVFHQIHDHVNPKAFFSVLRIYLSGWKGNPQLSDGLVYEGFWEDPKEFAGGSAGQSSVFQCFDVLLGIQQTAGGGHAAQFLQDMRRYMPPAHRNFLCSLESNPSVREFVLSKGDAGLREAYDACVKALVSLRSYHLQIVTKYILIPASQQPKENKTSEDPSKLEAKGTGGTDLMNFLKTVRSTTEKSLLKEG
T1 sequence (P14902 whole entry): as above

Row | SMILES | IC50 [1] [nM] | IC50 [2] [nM] | Papp A→B at 150 min, 2 µM [3] [×10⁻⁶ cm/s] | Papp B→A at 150 min, 2 µM [3] [×10⁻⁶ cm/s]
1 | CCS(=O)(=O)NCCSc1nonc1/C(=N/O)Nc1ccc(F)c(Br)c1 [Compound 0228] | 101 | 3.97 | 6.78 | 10.5
2 | CS(=O)(=O)NCCSc1nonc1/C(=N/O)Nc1ccc(F)c(Br)c1 [Compound 0229] | 80.1 | 11.2 | – | –
3 | CNC(=O)NCCSc1nonc1/C(=N/O)Nc1ccc(F)c(Br)c1 [Compound 0233] | 109 | 19.2 | – | –
4 | O=C(NCCSc1nonc1/C(=N/O)Nc1ccc(F)c(Br)c1)NC1CC1 [Compound 0234] | 77 | 9.58 | – | –
5 | O=C(NCCSc1nonc1/C(=N/O)Nc1ccc(F)c(Br)c1)C1CC1 [Compound 0236] | 129 | 55.4 | – | –
6 | CNC(=O)CSc1nonc1/C(=N/O)Nc1ccc(F)c(Br)c1 [Compound 0237] | 42.3 | 8.51 | – | –
7 | CNC(=O)CCSc1nonc1/C(=N/O)Nc1ccc(F)c(Br)c1 [Compound 0238] | 85.4 | 13.9 | – | –
8 | CNS(=O)(=O)NCCSc1nonc1/C(=N/O)Nc1ccc(F)c(Br)c1 [Compound 0240] | 128 | 26.2 | – | –
9 | O=CNCCSc1nonc1/C(=N/O)Nc1ccc(F)c(Br)c1 [Compound 0245] | 74.4 | 14.8 | – | –
10 | O=C(CSc1nonc1/C(=N/O)Nc1ccc(F)c(Br)c1)NC1CC1 [Compound 0247] | 95.7 | 17.1 | – | –
11 | N#CCC(=O)NCCSc1nonc1/C(=N/O)Nc1ccc(F)c(Br)c1 [Compound 0249] | 164 | 30.3 | – | –
12 | COC(=O)NCCSc1nonc1/C(=N/O)Nc1ccc(F)c(Br)c1 [Compound 0250] | 138 | 27 | – | –
13 | NC(=O)CSc1nonc1/C(=N/O)Nc1ccc(F)c(Br)c1 [Compound 0251] | 44.3 | 7.15 | – | –
14 | O=C(CSc1nonc1/C(=N/O)Nc1ccc(F)c(Br)c1)NO [Compound 0260] | 74.6 | 31.5 | – | –
15 | NC(=O)CCSc1nonc1/C(=N/O)Nc1ccc(F)c(Br)c1 [Compound 0262] | 89.6 | 70.8 | – | –
16 | NS(=O)(=O)NCCSc1nonc1/C(=N/O)Nc1ccc(F)c(I)c1 [Compound 0273] | 144 | 34.4 | – | –
17 | O=C(NCCSc1nonc1/C(=N/O)Nc1ccc(F)c(Br)c1)C(F)F [Compound 0287] | 69.4 | 12.9 | – | –
18 | O=C(CO)NCCSc1nonc1/C(=N/O)Nc1ccc(F)c(Br)c1 [Compound 0293] | 60.1 | 29.5 | – | –
19 | NS(=O)(=O)NCCSc1nonc1/C(=N/O)Nc1cccc(I)c1 [Compound 0295] | 122 | 47.2 | – | –
20 | NC(=O)NCCSc1nonc1/C(=N/O)Nc1cccc(I)c1 [Compound 0309] | 54.5 | 23.5 | – | –
21 | N#C/N=C(\N)NCCSc1nonc1/C(=N/O)Nc1ccc(F)c(Br)c1 [Compound 0310] | 97.3 | 12.8 | – | –
22 | N=C(N)NCCSc1nonc1/C(=N/O)Nc1ccc(F)c(Br)c1 [Compound 0383] | 100 | 105 | – | –
23 | N=C(N)NC(=N)NCCSc1nonc1/C(=N/O)Nc1ccc(F)c(Br)c1 [Compound 0384] | 173 | 152 | – | –
